In article PMC9278656 (Journal of medicinal chemistry, 2021):
Read-outs that look alike come from different tables or passages of the source.

Experiments:
p53^R175H = assay: Immunofluorescence with conformation-specific antibodies PAB1620/PAB240; assay type: cell-based
Ionophore activity = settings: larger number indicates weaker ionophore activity
Caco-2 permeability = assay type: in vitro ADME; settings: human
[1] = test system: Rat Sodium Channel site 2; assay: CEREP safety screen, sodium channel site 2; assay type: binding; settings: 10 μM
[2] = biological target: Human Norepinephrine Transporter (Homo sapiens, UniProt P23975); assay: CEREP safety screen, norepinephrine transporter; assay type: binding; settings: 10 μM
Sequence of Human Norepinephrine Transporter (P23975 whole entry): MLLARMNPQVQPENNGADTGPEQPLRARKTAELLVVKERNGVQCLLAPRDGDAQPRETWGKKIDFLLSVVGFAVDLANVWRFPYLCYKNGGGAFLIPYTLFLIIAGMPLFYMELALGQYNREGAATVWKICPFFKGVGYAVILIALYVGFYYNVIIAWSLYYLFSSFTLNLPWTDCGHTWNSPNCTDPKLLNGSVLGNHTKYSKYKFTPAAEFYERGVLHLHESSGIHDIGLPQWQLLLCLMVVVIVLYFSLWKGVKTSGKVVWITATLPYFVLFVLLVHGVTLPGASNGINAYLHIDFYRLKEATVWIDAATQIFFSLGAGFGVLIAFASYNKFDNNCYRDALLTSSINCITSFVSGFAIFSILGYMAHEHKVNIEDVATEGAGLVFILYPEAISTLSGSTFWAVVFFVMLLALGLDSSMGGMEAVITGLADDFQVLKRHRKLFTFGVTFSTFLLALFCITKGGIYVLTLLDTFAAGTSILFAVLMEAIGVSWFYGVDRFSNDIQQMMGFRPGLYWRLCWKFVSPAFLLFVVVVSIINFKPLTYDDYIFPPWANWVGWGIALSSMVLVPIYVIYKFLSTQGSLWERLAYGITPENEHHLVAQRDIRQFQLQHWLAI

[3] = test system: p53 wild type and p53 null cell lines; assay: Cell kill in p53 wild type and p53 null cell lines; assay type: cell-based; settings: allele selectivity, Suppl. Figure S1
[4] = test system: MDA-MB-468 (p53^R273H) tumors; assay: Xenograft tumor assay, MDA-MB-468; assay type: in vivo, nude mice NCr nu/nu; settings: non Zn-deficient mutation, Suppl. Figure S2
[5] = NCr nu/nu nude, mouse, in vivo, ip
[6] = cited from earlier work
[7] = read-out: KZn; order of magnitude, stated in Conclusions

## C/C(=N\Nc1nc2ccccc2s1)c1ccccn1 [C1, (E)-2-(2-(1-(Pyridin-2-yl)ethylidene)hydrazinyl)benzo[d]thiazole]
p53^R175H
  Refolding p53^R175H → wild type: induced a wild-type conformational change
p53^R175H; listed as Cl
  Refolding p53^R175H → wild type: YES
Ionophore activity
  Ionophore Ji drug/Ji DMSO: 11.6 -log[mol/m^2s]
Caco-2 permeability
  Papp at 90 min, 5 μM: 4.4 ± 0.1 ×10⁻⁶ cm/s
[1]
  Activity against the sodium channel, in words: showed activity
[2]
  Activity against the norepinephrine transporter, in words: showed activity
[3]
  Cell kill in p53 wild type and p53 null cell lines: almost no cell kill
[4]
  Tumor growth inhibition of p53^R273H tumors: did not inhibit the tumor growth
[5]
  Well tolerated dose without significant weight loss: up to 30 mg/kg
[6]
  Aqueous solubility: low aqueous solubility

## C/C(=N\NC(=S)N1CCC1)c1ccccn1 [ZMC1, (E)-N′-(1-(Pyridin-2-yl)ethylidene)azetidine-1-carbothiohydrazide, reference compound]
Ionophore activity
  Ionophore Ji drug/Ji DMSO: 12.4 -log[mol/m^2s]
Caco-2 permeability
  Papp at 90 min, 5 μM: 15.6 ± 1.3 ×10⁻⁶ cm/s
[7]
  Kd: 10 nM
